This note sets out measurements from patent USRE47689E1, “Compounds for treating spinal muscular atrophy” (PTC Therapeutics, Inc., priority 2011, dated 2019).

The test system of assay [1] is SMN2 minigene (full length SMN2 minigene mRNA containing SMN2 exon 7). In words: SMN2 minigene mRNA splicing RT-qPCR assay in cultured cells. It counts as cell-based, human. The conditions noted are these: Homo sapiens, HEK293-H, read-out: EC1.5x for production of full length SMN2 mRNA. An outline of the steps:
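Lysates → one-step RT-qPCR, minigene-specific primers (0.4 μM final) + GAPDH multiplex, 40 cycles. FL/GAPDH vs DMSO; EC1.5x, star-binned.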

For assay [2], the system named is Smn protein. The experiment in a line: Smn protein assay in cultured cells (SMN HTRF). It counts as cell-based, human. The following applies: 48 hours; for EC1.5x (concentration giving 1.5-fold Smn protein increase): SMA Type 1 patient fibroblast cells (GM03813), 7-point concentration curve, SMN HTRF, concentration producing 1.5 times Smn protein vs DMSO vehicle control, read-out: EC1.5x for Smn protein expression; for maximum fold (Fold) increase of Smn protein: SMA patient fibroblast cells, 7-point concentration data, fold increase relative to vehicle control (SMN HTRF). The method in brief:
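Smn in SMA fibroblast lysates, measured by anti-SMN HTRF after 48 h compound exposure; EC1.5x from fold change over vehicle.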

Where [3] appears, read: HEK293H cells stably transfected with SMN2-A minigene, 24 hours, 7-point concentration curve, 1.5-fold relative to vehicle-treated cells.

Structures can show the parent of a compound that is named as a salt. Where two headings read alike, the source gives them in different places.

Regarding `Cc1cn2cc(-c3cc4ccc(O[C@@H]5CCNC5)cc4oc3=O)nc2c(C)n1` [Compound 601, 3-(6,8-dimethylimidazo[1,2-a]pyrazin-2-yl)-7-[(3R)-pyrrolidin-3-yloxy]-2H-chromen-2-one], in assay [1] (setting [3]), the EC (1.5-fold) is less than 0.1 µM. Besides, in assay [2], the EC1.5x (concentration giving 1.5-fold Smn protein increase) is less than 300 nM and the “maximum fold (Fold) increase of Smn protein” value (from here on “maximum fold (Fold) increase”) was “***** (fold increase >1.65)”.

Take `CCN1CCN(c2ccc3cc(-c4cn5cc(C)nc(C)c5n4)c(=O)oc3c2)C[C@@H]1C(C)C` [Compound 810, 3-(6,8-dimethylimidazo[1,2-a]pyrazin-2-yl)-7-[(3S)-4-ethyl-3-(propan-2-yl)piperazin-1-yl]-2H-chromen-2-one]: the EC (1.5-fold) in assay [1] (setting [3]) is 0.3 to 1 µM. Besides, in assay [2], the EC1.5x (concentration giving 1.5-fold Smn protein increase) lay in the range of 1000 to 3000 nM; the “maximum fold (Fold) increase” value is “**** (fold increase between >1.5 and ≤1.65)”.

For `Cc1cc2cc(-c3cc4ccc(N5CCN(CC6CC6)CC5)cc4oc3=O)oc2c(C)n1` [Compound 816, 7-[4-(cyclopropylmethyl)piperazin-1-yl]-3-(5,7-dimethylfuro[2,3-c]pyridin-2-yl)-2H-chromen-2-one], the EC (1.5-fold) in assay [1] (setting [3]) was less than 0.1 µM. In assay [2], the EC1.5x (concentration giving 1.5-fold Smn protein increase) lay within 300 to 1000 nM; the “maximum fold (Fold) increase” value is “**** (fold increase between >1.5 and ≤1.65)”.

Take `Cc1cc2oc(-c3cc4ccc(N5CCNCC5)cc4oc3=O)cc2c(C)n1` [Compound 831, 3-(4,6-dimethylfuro[3,2-c]pyridin-2-yl)-7-(piperazin-1-yl)-2H-chromen-2-one]: the EC (1.5-fold) in assay [1] (setting [3]) fell in the range of 1 to 3 µM. Also, the “maximum fold (Fold) increase” value in assay [2] is recorded as “* (maximum fold increase of ≤1.2)”.

Consider `Cl.O=c1oc2cc(N3CCNCC3)ccc2cc1-c1ccnc(C2CC2)n1` [Compound 278, 3-(2-cyclopropylpyrimidin-4-yl)-7-(piperazin-1-yl)-2H-chromen-2-one hydrochloride], for which the EC (1.5-fold) in assay [1] (setting [3]) fell in the range of 0.3 to 1 µM. In addition, the “maximum fold (Fold) increase” value in assay [2] is listed as “* (maximum fold increase of ≤1.2)”.

As for `Cc1cn2cc(-c3cc4ccc(N5CCN[C@H](C)C5)cc4oc3=O)nc2c(C)n1` [Cpd 536, 3-(6,8-dimethylimidazo[1,2-a]pyrazin-2-yl)-7-[(3R)-3-methylpiperazin-1-yl]-2H-chromen-2-one], the EC (1.5-fold) in assay [1] (setting [3]) is less than 0.1 µM. Further, in assay [2], the EC1.5x (concentration giving 1.5-fold Smn protein increase) was less than 300 nM and the “maximum fold (Fold) increase” value is on record as “***** (fold increase >1.65)”.

With `Cc1cn2cc(-c3cc4ccc(N5CCN6CCC[C@H]6C5)cc4oc3=O)cc(F)c2n1` [Compound 983, 3-(8-fluoro-2-methylimidazo[1,2-a]pyridin-6-yl)-7-[(8aS)-hexahydropyrrolo[1,2-a]pyrazin-2(1H)-yl]-2H-chromen-2-one], in assay [1] (setting [3]), the EC (1.5-fold) was less than 0.1 µM. Also, in assay [2], the EC1.5x (concentration giving 1.5-fold Smn protein increase) is less than 300 nM and the “maximum fold (Fold) increase” value is listed as “***** (fold increase >1.65)”.

With `Cc1cn2cc(-c3cc4ccc(N5CCNCC5)cc4oc3=O)cc(F)c2n1` [Compound 986, 3-(8-fluoro-2-methylimidazo[1,2-a]pyridin-6-yl)-7-(piperazin-1-yl)-2H-chromen-2-one], the EC (1.5-fold) in assay [1] (setting [3]) was less than 0.1 µM. In assay [2], the EC1.5x (concentration giving 1.5-fold Smn protein increase) was less than 300 nM and the “maximum fold (Fold) increase” value was “***** (fold increase >1.65)”.

Turning to `Cc1cn2cc(-c3cc4ccc(N5CCN6C(=O)CCC6C5)cc4oc3=O)nc2c(C)n1` (stereo not shown) [Compound 973, 2-[3-(6,8-dimethylimidazo[1,2-a]pyrazin-2-yl)-2-oxo-2H-chromen-7-yl]hexahydropyrrolo[1,2-a]pyrazin-6(2H)-one], the EC (1.5-fold) in assay [1] (setting [3]) was 3 to 30 µM. Further, in assay [2], the “maximum fold (Fold) increase” value is “* (maximum fold increase of ≤1.2)”.

Regarding `O=c1oc2cc(N3CCNCC3)ccc2cc1-c1cn2cc(F)ccc2n1` [Compound 103, 3-(6-fluoroimidazo[1,2-a]pyridin-2-yl)-7-(piperazin-1-yl)-2H-chromen-2-one], in assay [1] (setting [3]), the EC (1.5-fold) was in the range of 0.3 to 1 µM. Also, the “maximum fold (Fold) increase” value in assay [2] is “** (fold increase between >1.2 and ≤1.35)”.

On to `Cc1nc2ccc(-c3cc4ccc(N5CCN[C@@H](C)C5)cc4oc3=O)cc2s1` [Compound 770, 3-(2-methyl-1,3-benzothiazol-6-yl)-7-[(3S)-3-methylpiperazin-1-yl]-2H-chromen-2-one], for which the EC (1.5-fold) in assay [1] (setting [3]) was less than 0.1 µM. In assay [2], the EC1.5x (concentration giving 1.5-fold Smn protein increase) was less than 300 nM; the “maximum fold (Fold) increase” value was “**** (fold increase between >1.5 and ≤1.65)”.

With `Cc1cn2cc(-c3cc4ccc(N5CCN[C@H](C)C5)cc4oc3=O)ccc2n1` [Compound 652, 3-(2-methylimidazo[1,2-a]pyridin-6-yl)-7-[(3R)-3-methylpiperazin-1-yl]-2H-chromen-2-one], the EC (1.5-fold) in assay [1] (setting [3]) is less than 0.1 µM. Also, in assay [2], the EC1.5x (concentration giving 1.5-fold Smn protein increase) is less than 300 nM; the “maximum fold (Fold) increase” value is “**** (fold increase between >1.5 and ≤1.65)”.

Consider `CN1CCN(c2ccc3cc(-c4ccnc(C5CC5)n4)c(=O)oc3c2)CC1` [Compound 298, 3-(2-cyclopropylpyrimidin-4-yl)-7-(4-methylpiperazin-1-yl)-2H-chromen-2-one], for which the EC (1.5-fold) in assay [1] (setting [3]) fell in the range of 1 to 3 µM. In addition, in assay [2], the “maximum fold (Fold) increase” value is “* (maximum fold increase of ≤1.2)”.

Take `CSc1nccn2cc(-c3cc4ccc(N5CCN(C)CC5)cc4oc3=O)nc12` [Compound 399, 7-(4-methylpiperazin-1-yl)-3-[8-(methylsulfanyl)imidazo[1,2-a]pyrazin-2-yl]-2H-chromen-2-one]: the EC (1.5-fold) in assay [1] (setting [3]) was 3 to 30 µM. Further, in assay [2], the “maximum fold (Fold) increase” value is on record as “* (maximum fold increase of ≤1.2)”.

For the molecule `Cc1ccn2cc(-c3cc4ccc(O[C@@H]5CCNC5)cc4oc3=O)nc2c1` [Compound 323, 3-(7-methylimidazo[1,2-a]pyridin-2-yl)-7-[(3R)-pyirolidin-3-yloxy]-2H-chromen-2-one hydrochloride (1:2)], the EC (1.5-fold) in assay [1] (setting [3]) was 0.3 to 1 µM. Also, the “maximum fold (Fold) increase” value in assay [2] was “** (fold increase between >1.2 and ≤1.35)”.

Turning to `Cc1csc(-c2cc3ccc(N4CCNCC4)cc3oc2=O)n1` [Compound 37, 3-(4-methyl-1,3-thiazol-2-yl)-7-(piperazin-1-yl)-2H-chromen-2-one], the EC (1.5-fold) in assay [1] (24 h) is 1 to 3 µM. In addition, in assay [2], the “maximum fold (Fold) increase” value is “** (fold increase between >1.2 and ≤1.35)”.

Consider `Cc1cn2cc(-c3cc4ccc(N5CCN(CCO)[C@@H](C)C5)cc4oc3=O)nc2c(C)n1` [Compound 888, 3-(6,8-dimethylimidazo[1,2-a]pyrazin-2-yl)-7-[(3S)-4-(2-hydroxyethyl)-3-methylpiperazin-1-yl]-2H-chromen-2-one], for which, in assay [1] (setting [3]), the EC (1.5-fold) was less than 0.1 µM. In addition, in assay [2], the EC1.5x (concentration giving 1.5-fold Smn protein increase) was less than 300 nM and the “maximum fold (Fold) increase” value is on record as “***** (fold increase >1.65)”.

In the case of `Cc1cn2cc(-c3cc4ccc(N5CCN[C@@H](C)C5)cc4oc3=O)nc2cn1` [Compound 569, 3-(6-methylimidazo[1,2-a]pyrazin-2-yl)-7-[(3S)-3-methylpiperazin-1-yl]-2H-chromen-2-one], the EC (1.5-fold) in assay [1] (setting [3]) is less than 0.1 µM. Moreover, in assay [2], the EC1.5x (concentration giving 1.5-fold Smn protein increase) is less than 300 nM and the “maximum fold (Fold) increase” value is “***** (fold increase >1.65)”.

On to `CCN1CCC(c2ccc3cc(-c4cc5c(C)nc(C)cn5n4)c(=O)oc3c2)CC1` [Cpd 853, 3-(4,6-dimethylpyrazolo[1,5-a]pyrazin-2-yl)-7-(1-ethylpiperidin-4-yl)-2H-chromen-2-one], for which, in assay [1] (setting [3]), the EC (1.5-fold) was 1 to 3 µM. Besides, in assay [2], the “maximum fold (Fold) increase” value is “* (maximum fold increase of ≤1.2)”.

Take `O=c1oc2cc(N3C[C@@H]4C[C@H]3CN4)ccc2cc1-c1cn2cccnc2n1` [Compound 129, 7-[(1S,4S)-2,5-diazabicyclo[2.2.1]hept-2-yl]-3-(imidazo[1,2a]pyrimidin-2-yl)-2H-chromen-2-one hydrochloride (1:3)]: the EC (1.5-fold) in assay [1] (setting [3]) lay in the range of 0.3 to 1 µM. Further, the “maximum fold (Fold) increase” value in assay [2] is “** (fold increase between >1.2 and ≤1.35)”.

In the case of `CN1CCN(c2cc(F)c3cc(-c4cn5cccnc5n4)c(=O)oc3c2)CC1` [Compound 351, 5-fluoro-3-(imidazo[1,2-a]pyrimidin-2-yl)-7-(4-methylpiperazin-1-yl)-2H-chromen-2-one], the EC (1.5-fold) in assay [1] (setting [3]) lay in the range of 0.3 to 1 µM. Further, in assay [2], the “maximum fold (Fold) increase” value was “* (maximum fold increase of ≤1.2)”.

For the molecule `Cc1cc2sc(-c3cc4ccc(N5CCN(C)CC5)cc4oc3=O)cc2c(C)n1` [Compound 819, 3-(4,6-dimethylthieno[3,2-c]pyridin-2-yl)-7-(4-methylpiperazin-1-yl)-2H-chromen-2-one], in assay [1] (setting [3]), the EC (1.5-fold) was less than 0.1 µM. For the same molecule, the “maximum fold (Fold) increase” value in assay [2] is “*** (fold increase between >1.35 and ≤1.5)”.

`Cc1cn2cc(-c3cc4ccc(N5CCC(CNC(C)C)CC5)cc4oc3=O)cc2c(C)n1` [Compound 790, 3-(1,3-dimethylpyrrolo[1,2-a]pyrazin-7-yl)-7-{4-[(propan-2-ylamino)methyl]piperidin-1-yl}-2H-chromen-2-one]: the EC (1.5-fold) in assay [1] (setting [3]) is 0.3 to 1 µM. The “maximum fold (Fold) increase” value in assay [2] is “** (fold increase between >1.2 and ≤1.35)”.

For `Cl.O=c1oc2cc(C3CCNCC3)ccc2cc1-c1nc2c(Cl)cccc2s1` [Cpd 18, 3-(4-chloro-1,3-benzothiazol-2-yl)-7-(piperidin-4-yl)-2H-chromen-2-one hydrochloride], in assay [1] (setting [3]), the EC (1.5-fold) fell in the range of 0.3 to 1 µM. Moreover, the “maximum fold (Fold) increase” value in assay [2] is given as “* (maximum fold increase of ≤1.2)”.
